Results taken from patent US20250235455A1, “AQUEOUS TICAGRELOR SOLUTIONS, METHOD OF MANUFACTURING AND USES” (HYLORIS DEVELOPMENTS SA, priority 2022, published 2025).
Like-named read-outs stand apart in the source and are kept apart here.

Columns and labels:
[1] = pH and osmolality determination in undiluted batches; assay type: physicochemical; conditions: 19 mM phosphate buffer pH 7.5
Text: From the results obtained in Example 4 it follows that the concentration of excipients may be such that the resulting ticagrelor solution is hypertonic. The osmolality and pH of several batches was checked.

[2] = Solubility of ticagrelor in aqueous vitamin E TPGS solutions; assay type: physicochemical
Procedure: Aqueous ticagrelor solutions were prepared using vitamin E TPGS as solubilizer for ticagrelor. Water soluble vitamin E TPGS was added to water to obtain different concentrations of 2.5 and 5.0 and 10.0 w/v % aqueous vitamin E TPGS solutions. To these solutions, kept at a temperate of 45° C.+/−5° C., portions of ticagrelor were gradually added.
In the experiment summarized in Table 29, 3 mg ticagrelor portions were added step-by-step to a 50 ml aqueous vitamin E TPGS solution (1st stage).
20 ml of each diluent were then used in a 2nd stage study. To 20 ml of each diluent 10 mg ticagrelor portions were added. This was reduced to 5 mg when the dissolution was taking longer.

[3] = for Appearance, undiluted: 5 mg/ml; for Appearance in 5% dextrose / Appearance in NaCl 0.9%: diluted to 0.1 mg/ml
[4] = phosphate buffered solution pH 7.4, normal laboratory light and temperature; cited from earlier work
Flocculation test = assay type: physicochemical
[5] = Storage stability of ticagrelor 6 mg/ml in HPβCD 40% w/w, phosphate buffer pH 7.5, at 40° C. and 75% RH; assay type: physicochemical
Text: A Gradient HPLC method was used to analyze impurities in formulations using a YMC-Pack Pro C18 column (100×4.6 mm, S-3 μm 12 nm). Good separation was obtained for all the impurities. • Amine impurity: (1S,2S,3R,5S)-3-(7-amino-5-(propylsulfanyl)-3H-[1,2,3]triazolo[4,5-d]pyrimidin-3-yl)-5-(2-hydroxyethoxy)cyclopentane-1,2-diol. This is a process related degradant impurity. • Regiomer impurity: (1S, 2S, 3R, 5S)-3-((3-((1R,2S)-2-(3,4-Difluorophenyl)cyclopropyl)-5-(propylsulfanyl)-3H-[1,2,3]triazolo[4,5-d]pyrimidin-7-yl)amino)-5-(2-hydroxyethoxy)cyclopentane-1,2-diol. This is a process related degradant impurity. • Acetal impurity: 2-[[(3aR,4S,6S,6aS)-6-[7-[1R,2S)-2-(3,4-difluorophenyl)-cyclopropyl]amino]-5-(propylsulfanyl)-3H-[1,2,3]triazolo-[4,5-d]pyrimidin-3-yl]-2,2-dimethyltetrahydro-2H-3aHcyclopenta[d][1,3]dioxol-4-yl]oxy]ethan-1-ol.
First HPβCD was dissolved in a phosphate buffer solution of pH 7.5 prepared separately in water. […] The solution was filtered through a 0.22 micrometer filter and filled in USP Type I amber colored glass vials. The vials were stoppered and stored. All precautions were taken during manufacturing, such as N2 purging and avoiding direct exposure to light.

[6] = pH 7.5, T = 4 weeks, 40° C./75% RH
[7] = pH 7.5, T = 8 weeks, 40° C./75% RH
[8] = pH 7.5, T = 12 weeks, 40° C./75% RH
[9] = pH 7.5, T = 24 Weeks, 40° C./75% RH

`CCCSc1nc(N[C@@H]2C[C@H]2c2ccc(F)c(F)c2)c2nnn([C@@H]3C[C@H](OCCO)[C@@H](O)[C@H]3O)c2n1` [Ticagrelor, (1S,2S,3R,5S)-3-{7-[(1R,2S)-2-(3,4-difluorophenyl)cyclopropylamino]5-(propylthio)-3H-(1,2,3)triazolo (4,5-D)pyrimidin-3-yl}-5-(2 hydroxyethoxy)cyclopentane-1,2-diol] showed an Assay ([1]; HPβCD 22.5% w/w) of 98.15%, an Osmolality undiluted ([1]; HPβCD 22.5% w/w) of 392 mOsm/kg and a Total Impurities ([1]; HPβCD 22.5% w/w) of 0.39%. For the same compound, the pH undiluted ([1]; HPβCD 22.5% w/w) was 7.67, the Assay ([1]; HPβCD 25.0% w/w) was 103.23% and the Osmolality undiluted ([1]; HPβCD 25.0% w/w) was 493 mOsm/kg. The Total Impurities ([1]; HPβCD 25.0% w/w) was 0.41%, the pH undiluted ([1]; HPβCD 25.0% w/w) was 7.69 and the Assay ([1]; HPβCD 27.5% w/w) was 104.27%. It also gave an Osmolality undiluted ([1]; HPβCD 27.5% w/w) of 549 mOsm/kg, a Total Impurities ([1]; HPβCD 27.5% w/w) of 0.42% and a pH undiluted ([1]; HPβCD 27.5% w/w) of 7.69. For the same compound, the Assay ([1]; HPβCD 30.0% w/w) was 107.64%, the Osmolality undiluted ([1]; HPβCD 30.0% w/w) was 638 mOsm/kg and the Total Impurities ([1]; HPβCD 30.0% w/w) was 0.44%. The pH undiluted ([1]; HPβCD 30.0% w/w) was 7.74, the Assay ([1]; HPβCD 32.5% w/w) was 99.26% and the Osmolality undiluted ([1]; HPβCD 32.5% w/w) was 813 mOsm/kg. The Total Impurities ([1]; HPβCD 32.5% w/w) was 0.41%, the pH undiluted ([1]; HPβCD 32.5% w/w) was 7.68 and the “Time for 10 mg ticagrelor to dissolve” value [2] was 5 to 10 min. For the same compound, the “Appearance, undiluted” value ([3]; HPβCD 22.5% w/w) was “Turbid; clear after heating to 40 °C”, the “Appearance, undiluted” value ([3]; HPβCD 25.0% w/w) was “Turbid; clear after heating to 40 °C” and the “Appearance, undiluted” value ([3]; HPβCD 27.5% w/w) was “Turbid; clear after heating to 40 °C”. The “Appearance, undiluted” value ([3]; HPβCD 30.0% w/w) was “Clear solution”, the “Appearance, undiluted” value ([3]; HPβCD 32.5% w/w) was “Clear solution” and the “Ticagrelor concentration possible to dissolve” value ([3]; HPβCD 20-40% w/w, without the use of heat) was 5 to 15 mg/mL. The “Appearance in 5% dextrose” value ([3]; HPβCD 22.5% w/w) was “Clear solution”, the “Appearance in NaCl 0.9%” value ([3]; HPβCD 22.5% w/w) was “Turbid” and the “Appearance in 5% dextrose” value ([3]; HPβCD 25.0% w/w) was “Clear solution”. For the same compound, the “Appearance in NaCl 0.9%” value ([3]; HPβCD 25.0% w/w) was “Turbid”, the “Appearance in 5% dextrose” value ([3]; HPβCD 27.5% w/w) was “Clear solution” and the “Appearance in NaCl 0.9%” value ([3]; HPβCD 27.5% w/w) was “Turbid”. For the same compound, the “Appearance in 5% dextrose” value ([3]; HPβCD 30.0% w/w) was “Clear solution”, the “Appearance in NaCl 0.9%” value ([3]; HPβCD 30.0% w/w) was “Turbid” and the “Appearance in 5% dextrose” value ([3]; HPβCD 32.5% w/w) was “Clear solution”. For the same compound, the “Appearance in NaCl 0.9%” value ([3]; HPβCD 32.5% w/w) was “Clear solution”, the “Stability of undiluted concentrate in the refrigerator” value ([3]; HPβCD concentration as low as 22.5% w/w) was “remained stable” and the “HPβCD required for a clear, storage stable ticagrelor solution” value ([3]; concentration relevant for injection or intravenous administration) was “At least 15 % w/w”. For the same compound, the “Ticagrelor concentration on storage” value [4] was “declined after 1 month”, the Flocculation test (Flocculation test; HPβCD 25% w/w, ticagrelor 5 mg/ml) was “did not pass” and the Flocculation test (Flocculation test; HPβCD 30% w/w, ticagrelor 5 mg/ml) was “passed”. For the same compound, the Flocculation test (Flocculation test; HPβCD 35% w/w, ticagrelor 5 mg/ml) was “passed”, the Flocculation test (Flocculation test; HPβCD 35% w/w, ticagrelor 10 mg/ml) was “did not pass” and the Flocculation test (Flocculation test; HPβCD 40% w/w, ticagrelor 5 mg/ml) was “passed”. For the same compound, the Flocculation test (Flocculation test; HPβCD 40% w/w, ticagrelor 10 mg/ml) was “passed”, the Flocculation test (Flocculation test; SBECD 40% w/w, ticagrelor 5 mg/ml) was “passed” and the Storage stability ([5]; 40° C. and 75% Relative Humidity) was “good storage stability”. The Acetal impurity ([5]; pH 7.5, T = 0) was 0.05%, the Amine impurity ([5]; pH 7.5, T = 0) was 0.04% and the Assay Ticagrelor ([5]; pH 7.5, T = 0) was 104.27%. For the same compound, the Regiomer impurity ([5]; pH 7.5, T = 0) was 0.00%, the “Sum Impurities >0.05” value ([5]; pH 7.5, T = 0) was 0.11% and the “Total Impurities” value ([5]; pH 7.5, T = 0) was 0.31%. For the same compound, the Triol impurity ([5]; pH 7.5, T = 0) was 0.04%, the Acetal impurity [5, 6] was 0.05% and the Amine impurity [5, 6] was 0.05%. For the same compound, the Assay Ticagrelor [5, 6] was 104.47%, the Regiomer impurity [5, 6] was 0.01% and the “Sum Impurities >0.05” value [5, 6] was 0.14%. The “Total Impurities” value [5, 6] was 0.32%, the Triol impurity [5, 6] was 0.05% and the Acetal impurity [5, 7] was 0.05%. For the same compound, the Amine impurity [5, 7] was 0.05%, the Assay Ticagrelor [5, 7] was 102.59% and the Regiomer impurity [5, 7] was 0.04%. For the same compound, the “Sum Impurities >0.05” value [5, 7] was 0.15%, the “Total Impurities” value [5, 7] was 0.29% and the Triol impurity [5, 7] was 0.05%. It also gave an Acetal impurity [5, 8] of 0.05%, an Amine impurity [5, 8] of 0.05% and an Assay Ticagrelor [5, 8] of 102.31%. The Regiomer impurity [5, 8] was 0.08%, the “Sum Impurities >0.05” value [5, 8] was 0.23% and the “Total Impurities” value [5, 8] was 0.41%. The Triol impurity [5, 8] was 0.04%, the Acetal impurity [5, 9] was 0.05% and the Amine impurity [5, 9] was 0.07%. The Assay Ticagrelor [5, 9] was 104.39%, the Regiomer impurity [5, 9] was 0.16% and the “Sum Impurities >0.05” value [5, 9] was 0.33%. For the same compound, the “Total Impurities” value [5, 9] was 0.35% and the Triol impurity [5, 9] was 0.05%.
